Data reported in patent publication US20210003580A1, “METHODS OF DETECTION AND TREATMENT OF HYPER TRANSCRIPTION DISEASES” (BOARD OF REGENTS OF THE UNIVERSITY OF TEXAS SYSTEM, priority 2018, published 2021).

Columns and labels:
EwS cell lines = assay: Cell viability (Celltiter-Glo) after drug exposure, EwS cell lines vs controls; type: cell-based, human; conditions: cell viability measured after 72 hours exposure, compared to controls IMR90 / U2OS
Description: Cell culture and transfections. Ewing sarcoma cell lines (TC32, CHLA10 and CHLA258) were obtained from Children's Oncology Group and EWS502 was obtained from Dr. Lessnick. Of note, TC32 is highly chemosensitive and CHLA10 was derived from a post-treatment recurrent chemoresistant tumor (Table 1). As controls, IMR90 (primary human neonatal fibroblast) and U2OS (pediatric Osteosarcoma) cell lines were obtained from ATCC. IMR90 and U2OS were cultured in DMEM (Corning), TC32, EWS502, RDES in […] (Corning), SKES1 in McCoys (Corning) and CHLA10, CHLA258 in IMDM (HyClone); all cultured media were supplemented with 10% FBS (Atlanta Biologicals) and 1% antibiotic/antimycotic solution (Corning). Cells were maintained at 37° C. in a humidified atmosphere with 5% CO2 and tested for mycoplasma contamination.
(§1) Cell viability. Cells were seeded at 30% confluence in 96 or 384 well plates with or without reverse transfection with siRNA. For plasmid expression, cells were transfected in 60 mm dishes first and then split into 96 or 384 well plates. The following day, the cells were treated to different drugs/inhibitors and cell viability was evaluated after 48 to 72 hours using Celltiter-Glo (Promega). Each condition was tested in triplicate. […] Drug screening data from an independently published study was obtained from http://www.cancerrxgene.org/.

[1] = tested on: U2OS cells with EWSR1 knockdown; assay: Cell viability, EWSR1-depleted U2OS cells; type: cell-based, human; conditions: U2OS siEWSR1 relative to U2OS siCtrl; 72 hours
Description: (§2) All transfections were carried out using Lipofectamine RNAiMax, Lipofectamine 3000 (Invitrogen) following manufacturer's instructions. For RNASEH1 transfections, 3×10^6 TC32 cells were transfected with 13 μg of plasmid DNA using Amaxa nucleofection (program X-001). Gene knockdowns were performed by reverse transfection whereas plasmid transfections were performed 24 hours after seeding. The siRNAs used in this study include: BRCA1 and EWSR1 (Life Technologies), EWSR1, BRCA1, FLI1, FUS, TAF15, 53BP1, FANCA, FANCD2 and FANCI (Santa Cruz). For some experiments, lentiviral transduction of TC32 with shCtrl (clone RHZ4743, Life Technologies) or shFLI1 (clone V2THS227524 or V3THS414176, Life Technologies) was performed. EWS-FLI1, EWS-FLI1 R2L2, EWS-ERG, EWSR1 (full length) and shEWSR1 in pMSCV vector were obtained from Dr. Stephen Lessnick. EWSR1 N terminal domain in pLX304 vector was purchased from DNASU. GFP-RNASEH1 and FLAG-RNASEH1 plasmids were a kind gift from Dr. Robert Crouch (Eunice Kennedy Shriver National Institute of Child Health and Human Development). HA-BRCA1 was obtained from Dr. Yuzuru Shiio (UTH-SA). ISceI in pCAGGS vector was a kind gift from Dr. Maria Jasin (Memorial Sloan Kettering Cancer Center) and Dr. Jeremy Stark (City of Hope Cancer Center). All siRNA and plasmid transfections were accompanied with control siRNA or empty vector respectively.
as §1

[2] = tested on: U2OS cells transfected with EWS-FLI1; assay: Cell viability, U2OS cells transfected with EWS-FLI1 vs empty vector; type: cell-based, human; conditions: compared to empty vector (EV) transfected cells
Description: as §2, with “ISceI in pCAGGS vector was a kind gift from Dr. Maria Jasin (Memorial Sloan Kettering Cancer Center) and Dr. Jeremy Stark (City of Hope Cancer Center). All siRNA and plasmid transfections were accompanied with control siRNA or empty vector respectively.” left out
Cell viability. […] The following day, the cells were treated to different drugs/inhibitors and cell viability was evaluated after 48 to 72 hours using Celltiter-Glo (Promega). […]

IMR90 cells = assay: Transcription recovery assay (EU incorporation), IMR90; type: cell-based, human; conditions: exposed for 2 or 16 hours, 30 min EU labeling
Description: (§3) Transcription Recovery Assay. […] Post-incubation, cells were fixed, permeabilized and subjected to Click-iT RNA reaction (Click-iT RNA Alexa Flour […] Imaging kit, ThermoFisher Scientific) according to manufacturer's instructions. Washed coverslips were mounted onto glass slides using ProLong Antifade Mounting Solution with DAPI (ThermoFisher Scientific) and imaged using a Zeiss microscope at 63×. A minimum of 100 cells were analyzed for each condition. Image analysis was performed using ImageJ.

TC32 cells = assay: Transcription recovery assay (EU incorporation), TC32; type: cell-based, human; conditions: exposed for 2 or 16 hours, 30 min EU labeling
Description: as §3

CDK9/cyclin T1 = molecular target: T1, CDK9/cyclin T1 (Homo sapiens, UniProt P50750); assay: In vitro RNAPII phosphorylation assay (Adapta kinase assay), CDK9; type: biochemical; conditions: 1 μM recombinant protein; substrates CDKtide or RNAPII CTD fragment; relative to vehicle
T1 construct: purchased ThermoFisher Scientific PV4131
Description: In vitro RNAPII phosphorylation assay. The following purified recombinant proteins were purchased: RNAPII CTD fragment (POLR2A-1149H, Creative BioMart), EWSR1 (TP303709, Origene), FUS (TP301808, Origene), CDK9/cyclin T1 (PV4131, ThermoFisher Scientific) and CDK7/cyclin H/MNAT1 (ab64303, Abcam). The in vitro kinase assay was performed using the Adapta kinase assay (PV5099, ThermoFisher Scientific) according to manufacturer's instructions. The template used for kinase activity was either 50 μM CDK7/9tide provided in the kit (PV5090, ThermoFisher Scientific), or 12 ng RNAPII CTD fragment. 1 μM EWSR1 or FUS was added to the substrate and 10 μM ATP kinase buffer and pre-incubated for 15 min. 1.77 μg/ml CDK9/cyclin T1 or 5.6 μg/ml CDK7/cyclin H/MNAT1 were then added and the kinase reaction was allowed to proceed for a further 45 minutes. 10 μM ADP and 10 μM ATP served positive and negative controls. Finally, Eu-labeled antibody and Alexa Fluor-647-labeled tracer added and the level of ATP consumption was measured 30 minutes later using BMG Labtech Pherastar microplate reader. Each condition was tested in quadruplicate and the overall experiment was repeated at least 3 times for independent validation.

T1 sequence (P50750 whole entry, the tested form may be a part): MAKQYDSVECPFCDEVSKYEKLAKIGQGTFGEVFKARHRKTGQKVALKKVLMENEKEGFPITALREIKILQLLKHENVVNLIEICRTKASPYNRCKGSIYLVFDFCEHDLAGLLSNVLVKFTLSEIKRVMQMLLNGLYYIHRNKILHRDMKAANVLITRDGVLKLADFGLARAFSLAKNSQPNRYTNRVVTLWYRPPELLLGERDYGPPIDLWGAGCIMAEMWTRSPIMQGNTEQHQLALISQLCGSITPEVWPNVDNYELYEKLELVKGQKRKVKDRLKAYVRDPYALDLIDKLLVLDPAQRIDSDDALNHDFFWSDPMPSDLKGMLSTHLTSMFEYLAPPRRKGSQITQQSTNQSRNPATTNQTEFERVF
T1 sequence (O60563 whole entry partner, the tested form may be a part): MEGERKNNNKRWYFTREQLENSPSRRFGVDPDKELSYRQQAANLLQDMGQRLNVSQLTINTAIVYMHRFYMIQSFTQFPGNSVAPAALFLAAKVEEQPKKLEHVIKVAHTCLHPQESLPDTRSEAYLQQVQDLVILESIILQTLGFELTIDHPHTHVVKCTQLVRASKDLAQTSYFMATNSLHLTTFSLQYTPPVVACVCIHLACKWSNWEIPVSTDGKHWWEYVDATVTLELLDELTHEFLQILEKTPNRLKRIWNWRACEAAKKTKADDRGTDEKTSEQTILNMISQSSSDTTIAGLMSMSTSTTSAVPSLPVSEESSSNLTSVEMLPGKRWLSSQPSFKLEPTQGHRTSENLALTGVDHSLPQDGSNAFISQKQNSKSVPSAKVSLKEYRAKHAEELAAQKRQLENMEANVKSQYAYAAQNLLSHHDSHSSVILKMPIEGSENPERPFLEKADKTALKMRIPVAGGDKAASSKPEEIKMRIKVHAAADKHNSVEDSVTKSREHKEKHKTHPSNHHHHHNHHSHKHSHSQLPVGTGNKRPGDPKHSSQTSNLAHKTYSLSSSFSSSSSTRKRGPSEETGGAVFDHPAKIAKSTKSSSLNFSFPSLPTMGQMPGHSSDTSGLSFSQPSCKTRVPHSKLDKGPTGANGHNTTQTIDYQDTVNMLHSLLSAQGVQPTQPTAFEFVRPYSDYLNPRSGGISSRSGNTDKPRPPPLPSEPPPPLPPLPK

| Molecule | sensitivity (cell viability) of EwS cell lines compared to controls (EwS cell lines) | sensitivity (cell viability) of EWSR1-depleted U2OS cells [1] | other results |
| --- | --- | --- | --- |
| CS(=O)(=O)c1ccc(-c2cnc(N)c(C(=O)Nc3ccccc3)n2)cc1 [VE-821] | significantly more sensitive | significantly more sensitive | sensitivity (cell viability) of U2OS cells expressing EWS-FLI1 [2]: significantly more sensitive |
| O=C(c1cc(Cc2n[nH]c(=O)c3ccccc23)ccc1F)N1CCN(C(=O)C2CC2)CC1 [Olaparib] | exquisite sensitivity | – | sensitivity (cell viability) of EwS cell lines compared to controls (EwS cell lines; listed as olaparib): acutely sensitive; sensitivity (cell viability) of U2OS cells expressing EWS-FLI1 [2]: exquisite sensitivity |
| COc1cc([C@@H]2c3cc4c(cc3[C@@H](O[C@@H]3O[C@@H]5CO[C@@H](C)O[C@H]5[C@H](O)[C@H]3O)[C@H]3COC(=O)[C@H]23)OCO4)cc(OC)c1O [etoposide] | acutely sensitive | – | transcriptional activity (EU incorporation) after exposure (IMR90 cells): decrease in EU incorporation two hours post-damage followed by recovery at 16 hours; transcriptional activity (EU incorporation) after exposure (TC32 cells): much delayed loss of transcription |
| CC[C@@]1(O)C(=O)OCc2c1cc1n(c2=O)Cc2cc3ccccc3nc2-1 [camptothecin] | much more sensitive | much more sensitive | – |
| NC(=O)NO [hydroxyurea] | acutely sensitive | – | – |
| OC[C@H]1O[C@@H](n2cnc3cc(Cl)c(Cl)cc32)[C@H](O)[C@@H]1O [DRB, 5,6-dichloro-1-β-D-ribofuranosyl-1H-benzimidazole] | much more sensitive | much more sensitive | – |
| O=c1c2ccccc2sn1-c1ccccc1 [R11] | significantly higher sensitivity | – | – |
| EWSR1: purified recombinant EWSR1 protein (TP303709, Origene) (protein, UniProt Q01844 1-656, looked up) RNA-binding protein EWS: MASTDYSTYSQAAAQQGYSAYTAQPTQGYAQTTQAYGQQSYGTYGQPTDVSYTQAQTTATYGQTAYATSYGQPPTGYTTPTAPQAYSQPVQGYGTGAYDTTTATVTTTQASYAAQSAYGTQPAYPAYGQQPAATAPTRPQDGNKPTETSQPQSSTGGYNQPSLGYGQSNYSYPQVPGSYPMQPVTAPPSYPPTSYSSTQPTSYDQSSYSQQNTYGQPSSYGQQSSYGQQSSYGQQPPTSYPPQTGSYSQAPSQYSQQSSSYGQQSSFRQDHPSSMGVYGQESGGFSGPGENRSMSGPDNRGRGRGGFDRGGMSRGGRGGGRGGMGSAGERGGFNKPGGPMDEGPDLDLGPPVDPDEDSDNSAIYVQGLNDSVTLDDLADFFKQCGVVKMNKRTGQPMIHIYLDKETGKPKGDATVSYEDPPTAKAAVEWFDGKDFQGSKLKVSLARKKPPMNSMRGGLPPREGRGMPPPLRGGPGGPGGPGGPMGRMGGRGGDRGGFPPRGPRGSRGNPSGGGNVQHRAGDWQCPNPGCGNQNFAWRTECNQCKAPKPEGFLPPPFPPPGGDRGRGGPGGMRGGRGGLMDRGGPGGMFRGGRGGDRGGFRGGRGMDRGGFGGGRRGGPGGPPGPLMEQMGGRRGGRGGPGKMDKGEHRQERRDRPY | – | – | inhibition of phosphorylation of RNAPII CTD by CDK9 (CDK9/cyclin T1): inhibited |
| FUS: purified recombinant FUS protein (TP301808, Origene) (protein, UniProt P35637 1-526, looked up) RNA-binding protein FUS: MASNDYTQQATQSYGAYPTQPGQGYSQQSSQPYGQQSYSGYSQSTDTSGYGQSSYSSYGQSQNTGYGTQSTPQGYGSTGGYGSSQSSQSSYGQQSSYPGYGQQPAPSSTSGSYGSSSQSSSYGQPQSGSYSQQPSYGGQQQSYGQQQSYNPPQGYGQQNQYNSSSGGGGGGGGGGNYGQDQSSMSSGGGSGGGYGNQDQSGGGGSGGYGQQDRGGRGRGGSGGGGGGGGGGYNRSSGGYEPRGRGGGRGGRGGMGGSDRGGFNKFGGPRDQGSRHDSEQDNSDNNTIFVQGLGENVTIESVADYFKQIGIIKTNKKTGQPMINLYTDRETGKLKGEATVSFDDPPSAKAAIDWFDGKEFSGNPIKVSFATRRADFNRGGGNGRGGRGRGGPMGRGGYGGGGSGGGGRGGFPSGGGGGGGQQRAGDWKCPNPTCENMNFSWRNECNQCKAPKPDGPGGGPGGSHMGGNYGDDRRGGRGGYDRGGYRGRGGDRGGFRGGRGGGDRGGFGPGKMDSRGEHRQDRRERPY | – | – | inhibition of phosphorylation of RNAPII CTD by CDK9 (CDK9/cyclin T1): inhibited |
